{
  "source": "patent US12097202B2",
  "about": "(Kadmon Corporation, LLC, priority 2022, dated 2024)",
  "key": {"pregnant rats": {"tested_on": "pregnant rats", "assay": "Embryo-fetal development studies in rats", "assay_type": "in vivo, rat", "details": "oral, organogenesis, pilot study", "protocol": "In the pilot study, maternal toxicity and embryo-fetal developmental effects were observed. Maternal toxicity (reduced body weight gain) occurred at 150 and 300 mg/kg/day doses. Increased post-implantation loss occurred at 50 and 300 mg/kg/day."}, "[1]": {"tested_on": "patients with chronic GVHD", "assay": "Pooled adverse reactions and laboratory abnormalities, 83 adult chronic GVHD patients on 200 mg once daily (KD025-213 and KD025-208)", "assay_type": "in vivo, human", "details": "for Alanine Aminotransferase Increased / Alkaline Phosphatase Increased / Calcium Decreased / Creatinine Increased / Gamma Glutamyl Transferase Increased / Hemoglobin Decreased / Lymphocytes Decreased / Neutrophil Count Decreased / Phosphate Decreased / Platelets Decreased / Potassium Increased: Grade 0-1 Baseline", "excerpt": "The median duration of treatment was 9.2 months (range 0.5 to 44.7 months)."}, "human serum albumin": {"target": "human serum albumin (Homo sapiens, UniProt P02768)", "sequence (P02768 25-609)": "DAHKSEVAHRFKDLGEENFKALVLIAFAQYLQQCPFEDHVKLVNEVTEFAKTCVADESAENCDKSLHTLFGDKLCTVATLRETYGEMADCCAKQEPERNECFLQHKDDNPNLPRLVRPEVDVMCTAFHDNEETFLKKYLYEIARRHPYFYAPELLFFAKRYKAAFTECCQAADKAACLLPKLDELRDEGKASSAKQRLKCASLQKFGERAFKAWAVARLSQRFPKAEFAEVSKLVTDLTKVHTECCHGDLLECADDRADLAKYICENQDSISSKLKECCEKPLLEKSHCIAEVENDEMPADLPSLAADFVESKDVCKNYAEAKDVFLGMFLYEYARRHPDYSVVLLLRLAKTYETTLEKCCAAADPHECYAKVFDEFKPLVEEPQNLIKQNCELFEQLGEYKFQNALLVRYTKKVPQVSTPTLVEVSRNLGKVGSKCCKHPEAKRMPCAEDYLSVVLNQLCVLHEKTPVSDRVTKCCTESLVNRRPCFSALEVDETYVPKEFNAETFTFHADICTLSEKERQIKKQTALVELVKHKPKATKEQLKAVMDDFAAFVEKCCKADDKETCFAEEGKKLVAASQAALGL", "assay": "In vitro protein binding, human serum albumin", "assay_type": "in vitro ADME"}, "[2]": {"assay": "Clinical pharmacokinetics in healthy subjects (bioavailability, food effect, distribution, excretion)", "assay_type": "in vivo, human"}, "BCRP": {"target": "T1, BCRP (Homo sapiens, UniProt Q9UNQ0)", "T1 sequence (Q9UNQ0 1-655)": "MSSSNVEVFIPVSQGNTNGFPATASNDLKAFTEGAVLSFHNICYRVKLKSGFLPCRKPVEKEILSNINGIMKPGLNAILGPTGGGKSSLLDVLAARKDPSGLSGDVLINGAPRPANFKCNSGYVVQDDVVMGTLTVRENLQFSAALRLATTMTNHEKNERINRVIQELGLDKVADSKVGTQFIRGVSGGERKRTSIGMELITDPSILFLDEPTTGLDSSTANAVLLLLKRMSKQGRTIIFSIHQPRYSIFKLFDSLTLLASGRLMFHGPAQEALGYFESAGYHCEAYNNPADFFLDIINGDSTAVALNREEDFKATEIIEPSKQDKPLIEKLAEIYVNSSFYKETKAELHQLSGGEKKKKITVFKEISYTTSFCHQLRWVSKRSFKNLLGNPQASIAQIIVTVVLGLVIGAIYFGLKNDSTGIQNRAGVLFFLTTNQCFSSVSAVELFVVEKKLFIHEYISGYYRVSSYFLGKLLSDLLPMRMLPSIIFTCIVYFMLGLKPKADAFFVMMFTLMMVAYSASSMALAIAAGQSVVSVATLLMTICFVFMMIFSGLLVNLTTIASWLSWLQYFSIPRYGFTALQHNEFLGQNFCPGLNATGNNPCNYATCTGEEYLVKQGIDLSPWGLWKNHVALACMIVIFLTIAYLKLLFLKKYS", "assay": "In vitro transporter study, BCRP", "assay_type": "in vitro ADME", "details": "at clinically relevant concentrations"}, "[3]": {"details": "single oral dose of radiolabeled belumosudil"}},
  "data": [
    {"molecule": "CC(C)NC(=O)COc1cccc(-c2nc(Nc3ccc4[nH]ncc4c3)c3ccccc3n2)c1", "note": "[belumosudil, 2-{3-[4-(1H-indazol-5-ylamino)-2-quinazolinyl]phenoxy}-N-(propan-2-yl) acetamide]", "values": [
      {"measurement": "doses at which fetal malformations were observed", "setting": "pregnant rats", "value": "≥ 50", "unit": "mg/kg/day"},
      {"measurement": "Alanine Aminotransferase Increased", "setting": "[1]; Grade 2-4 Max Post", "value": 7, "unit": "%"},
      {"measurement": "Alkaline Phosphatase Increased", "setting": "[1]; Grade 2-4 Max Post", "value": 9, "unit": "%"},
      {"measurement": "Calcium Decreased", "setting": "[1]; Grade 2-4 Max Post", "value": 12, "unit": "%"},
      {"measurement": "Creatinine Increased", "setting": "[1]; Grade 2-4 Max Post", "value": 4, "unit": "%"},
      {"measurement": "Gamma Glutamyl Transferase Increased", "setting": "[1]; Grade 2-4 Max Post", "value": 21, "unit": "%"},
      {"measurement": "Hemoglobin Decreased", "setting": "[1]; Grade 2-4 Max Post", "value": 11, "unit": "%"},
      {"measurement": "Lymphocytes Decreased", "setting": "[1]; Grade 2-4 Max Post", "value": 29, "unit": "%"},
      {"measurement": "Neutrophil Count Decreased", "setting": "[1]; Grade 2-4 Max Post", "value": 8, "unit": "%"},
      {"measurement": "Phosphate Decreased", "setting": "[1]; Grade 2-4 Max Post", "value": 28, "unit": "%"},
      {"measurement": "Platelets Decreased", "setting": "[1]; Grade 2-4 Max Post", "value": 10, "unit": "%"},
      {"measurement": "Potassium Increased", "setting": "[1]; Grade 2-4 Max Post", "value": 7, "unit": "%"},
      {"measurement": "Alanine Aminotransferase Increased", "setting": "[1]; Grade 3-4 Max Post", "value": 2, "unit": "%"},
      {"measurement": "Alkaline Phosphatase Increased", "setting": "[1]; Grade 3-4 Max Post", "value": 0, "unit": "%"},
      {"measurement": "Calcium Decreased", "setting": "[1]; Grade 3-4 Max Post", "value": 1, "unit": "%"},
      {"measurement": "Creatinine Increased", "setting": "[1]; Grade 3-4 Max Post", "value": 0, "unit": "%"},
      {"measurement": "Gamma Glutamyl Transferase Increased", "setting": "[1]; Grade 3-4 Max Post", "value": 11, "unit": "%"},
      {"measurement": "Hemoglobin Decreased", "setting": "[1]; Grade 3-4 Max Post", "value": 1, "unit": "%"},
      {"measurement": "Lymphocytes Decreased", "setting": "[1]; Grade 3-4 Max Post", "value": 13, "unit": "%"},
      {"measurement": "Neutrophil Count Decreased", "setting": "[1]; Grade 3-4 Max Post", "value": 4, "unit": "%"},
      {"measurement": "Phosphate Decreased", "setting": "[1]; Grade 3-4 Max Post", "value": 7, "unit": "%"},
      {"measurement": "Platelets Decreased", "setting": "[1]; Grade 3-4 Max Post", "value": 5, "unit": "%"},
      {"measurement": "Potassium Increased", "setting": "[1]; Grade 3-4 Max Post", "value": 1, "unit": "%"},
      {"measurement": "Abdominal pain, All Grades", "setting": "[1]; N=83", "value": 22, "unit": "%"},
      {"measurement": "Abdominal pain, Grades 3-4", "setting": "[1]; N=83", "value": 1, "unit": "%"},
      {"measurement": "Arthralgia, All Grades", "setting": "[1]; N=83", "value": 15, "unit": "%"},
      {"measurement": "Arthralgia, Grades 3-4", "setting": "[1]; N=83", "value": 2, "unit": "%"},
      {"measurement": "Asthenia, All Grades", "setting": "[1]; N=83", "value": 46, "unit": "%"},
      {"measurement": "Asthenia, Grades 3-4", "setting": "[1]; N=83", "value": 4, "unit": "%"},
      {"measurement": "Bacterial infection, All Grades", "setting": "[1]; N=83", "value": 16, "unit": "%"},
      {"measurement": "Bacterial infection, Grades 3-4", "setting": "[1]; N=83", "value": 4, "unit": "%"},
      {"measurement": "Cough, All Grades", "setting": "[1]; N=83", "value": 30, "unit": "%"},
      {"measurement": "Cough, Grades 3-4", "setting": "[1]; N=83", "value": 0, "unit": "%"},
      {"measurement": "Decreased appetite, All Grades", "setting": "[1]; N=83", "value": 17, "unit": "%"},
      {"measurement": "Decreased appetite, Grades 3-4", "setting": "[1]; N=83", "value": 1, "unit": "%"},
      {"measurement": "Diarrhea, All Grades", "setting": "[1]; N=83", "value": 35, "unit": "%"},
      {"measurement": "Diarrhea, Grades 3-4", "setting": "[1]; N=83", "value": 5, "unit": "%"},
      {"measurement": "Dysphagia, All Grades", "setting": "[1]; N=83", "value": 16, "unit": "%"},
      {"measurement": "Dysphagia, Grades 3-4", "setting": "[1]; N=83", "value": 0, "unit": "%"},
      {"measurement": "Dyspnea, All Grades", "setting": "[1]; N=83", "value": 33, "unit": "%"},
      {"measurement": "Dyspnea, Grades 3-4", "setting": "[1]; N=83", "value": 5, "unit": "%"},
      {"measurement": "Edema, All Grades", "setting": "[1]; N=83", "value": 27, "unit": "%"},
      {"measurement": "Edema, Grades 3-4", "setting": "[1]; N=83", "value": 1, "unit": "%"},
      {"measurement": "Headache, All Grades", "setting": "[1]; N=83", "value": 21, "unit": "%"},
      {"measurement": "Headache, Grades 3-4", "setting": "[1]; N=83", "value": 0, "unit": "%"},
      {"measurement": "Hemorrhage, All Grades", "setting": "[1]; N=83", "value": 23, "unit": "%"},
      {"measurement": "Hemorrhage, Grades 3-4", "setting": "[1]; N=83", "value": 5, "unit": "%"},
      {"measurement": "Hypertension, All Grades", "setting": "[1]; N=83", "value": 21, "unit": "%"},
      {"measurement": "Hypertension, Grades 3-4", "setting": "[1]; N=83", "value": 7, "unit": "%"},
      {"measurement": "Infection (pathogen not specified), All Grades", "setting": "[1]; N=83", "value": 53, "unit": "%"},
      {"measurement": "Infection (pathogen not specified), Grades 3-4", "setting": "[1]; N=83", "value": 16, "unit": "%"},
      {"measurement": "Muscle spasm, All Grades", "setting": "[1]; N=83", "value": 17, "unit": "%"},
      {"measurement": "Muscle spasm, Grades 3-4", "setting": "[1]; N=83", "value": 0, "unit": "%"},
      {"measurement": "Musculoskeletal pain, All Grades", "setting": "[1]; N=83", "value": 22, "unit": "%"},
      {"measurement": "Musculoskeletal pain, Grades 3-4", "setting": "[1]; N=83", "value": 4, "unit": "%"},
      {"measurement": "Nausea (includes vomiting), All Grades", "setting": "[1]; N=83", "value": 42, "unit": "%"},
      {"measurement": "Nausea (includes vomiting), Grades 3-4", "setting": "[1]; N=83", "value": 4, "unit": "%"},
      {"measurement": "Pruritus, All Grades", "setting": "[1]; N=83", "value": 11, "unit": "%"},
      {"measurement": "Pruritus, Grades 3-4", "setting": "[1]; N=83", "value": 0, "unit": "%"},
      {"measurement": "Pyrexia, All Grades", "setting": "[1]; N=83", "value": 18, "unit": "%"},
      {"measurement": "Pyrexia, Grades 3-4", "setting": "[1]; N=83", "value": 1, "unit": "%"},
      {"measurement": "Rash, All Grades", "setting": "[1]; N=83", "value": 12, "unit": "%"},
      {"measurement": "Rash, Grades 3-4", "setting": "[1]; N=83", "value": 0, "unit": "%"},
      {"measurement": "Viral infection, All Grades", "setting": "[1]; N=83", "value": 19, "unit": "%"},
      {"measurement": "Viral infection, Grades 3-4", "setting": "[1]; N=83", "value": 4, "unit": "%"},
      {"measurement": "adverse reactions leading to dose interruption", "setting": "[1]; N=83", "value": 29, "unit": "%"},
      {"measurement": "dose interruption due to asthenia, dyspnea, hemorrhage, hypotension, liver function test abnormal, nausea, pyrexia, edema, renal failure (each)", "setting": "[1]; N=83", "value": 2, "unit": "%"},
      {"measurement": "dose interruption due to diarrhea", "setting": "[1]; N=83", "value": 4, "unit": "%"},
      {"measurement": "dose interruption due to infections", "setting": "[1]; N=83", "value": 11, "unit": "%"},
      {"measurement": "permanent discontinuation due to adverse reactions", "setting": "[1]; N=83", "value": 18, "unit": "%"},
      {"measurement": "permanent discontinuation due to nausea", "setting": "[1]; N=83", "value": 4, "unit": "%"},
      {"measurement": "binding to human serum albumin", "setting": "human serum albumin", "value": 99.9, "unit": "%"},
      {"measurement": "AUC increase with high-fat and high-calorie meal vs fasted", "setting": "[2]; single dose", "value": 2, "unit": "times"},
      {"measurement": "Cmax increase with high-fat and high-calorie meal vs fasted", "setting": "[2]; single dose", "value": 2.2, "unit": "times"},
      {"measurement": "radioactivity recovered in feces", "setting": "[2]; [3]", "value": 85, "unit": "%"},
      {"measurement": "radioactivity recovered in feces as unchanged", "setting": "[2]; [3]", "value": 30, "unit": "%"},
      {"measurement": "radioactivity recovered in urine", "setting": "[2]; [3]", "value": "less than 5%"},
      {"measurement": "inhibition of BCRP", "setting": "BCRP", "value": "inhibits"}
    ]}
  ]
}
